These results are taken from patent US20060183147A1, “Methods of identifying genes which modulate myelination” (Elan Pharmaceuticals, Inc., priority 2005, published 2006).

Experiment [1] concerns cortical oligodendrocytes. To be noted: added to the co-cultures; cited from earlier work.
The subject of experiment [2] is optic nerve oligodendrocytes. Put plainly: In vitro myelination assay: co-culture of retinal ganglion cells and optic nerve oligodendrocytes. In kind it is cell-based, rat. The procedure: Co-cultures of RGCs and optic nerve oligodendrocytes were prepared and used as follows. Purified oligodendrocytes were plated on PDL/merosin (Chemicon) substrate-coated tissue culture dishes in defined DMEM Sato medium, promoting proliferation for two days. After 2 days, the medium was switched to defined DMEM Sato medium, which contained factors to promote differentiation. Twenty-four hours after the switch to differentiation medium, ADORA1 agonists were added. Retinal ganglion cells were plated 24 hours thereafter, and the medium consisted of 50% astrocyte-conditioned medium (method see above) with DMEM Sato medium mixed with fresh defined Neurobasal™ (Invitrogen) Sato medium, containing B27™ supplement and growth factors (BDNF and CNTF), to promote retinal ganglion cell survival and 0.5% FBS. The FBS was added to help retinal ganglion cell survival. This is because forskolin, which up-regulates cAMP, could not be used when adding any ADORA agonists or antagonists, since these receptors are G-protein-coupled receptors and therefore, regulators of cAMP themselves. Cultures were grown for two weeks, with medium changes occurring every three days.
Optic nerve or cortical oligodendrocytes were purified from postnatal day 2-day 5 old rat pups by immuno-panning with the A2B5 antibody (ATCC). Retinal ganglion cells were purified from 5 day old rats by immunopanning with the Thy1 antibody T11D7.
Purified oligodendrocytes were plated on PDL/merosin substrate-coated tissue culture dishes in defined DMEM Sato medium, promoting proliferation for two days. After 2 days, the medium was switched to defined DMEM Sato medium, containing factors promoting differentiation. Twenty-four hours after the switch to differentiation medium, ADORA1 agonists were added. Retinal ganglion cells were plated 24 hours thereafter, and medium consisted of astrocyte-conditioned medium with DMEM Sato medium mixed with defined Neurobasal™ Sato medium, containing growth factors promoting retinal ganglion cell survival and 0.5% FBS.
Cultures were grown for two weeks, with medium changes occurring every three days. Control co-cultures were devoid of myelin segments, whereas oligodendrocytes co-cultures with ADORA1 agonist contained myelin segments originating from approximately 90% of the oligodendrocytes in these cultures.
To address whether the effect of the adenosine 1 receptor (ADORA1) agonist only affects oligodendrocytes, or also affects retinal ganglion cells (RGCs) to lead to myelination, purified rat optic nerve oligodendrocytes were plated on PEI-pre-coated culture dishes (6-well plates, Falcon BD) in mitogenic medium and cultured for two days. After two days, oligodendrocytes were switched to differentiation medium and the agonist MECA (Sigma) was added at a 200 μM concentration to this culture medium 24 hours later. The agonist was removed by washing the cells at 24, 48 and 72 hours, respectively, after its administration. Oligodendrocytes were subsequently taken off the PEI plates by incubation with Trypsin (535 units/ml) in Earle's Balanced Salt Solution (EBSS; Invitrogen) at 37° C. for 5 minutes, washed with PBS containing 30% FBS (Hyclone) and were plated onto RGCs grown for one week on PDL/merosin substrate. Cultures were fixed for immunohistochemistry two weeks after co-plating the oligodendrocytes with the RGCs. Since the oligodendrocytes were pre-incubated separately with the ADORA1 agonist before they were added to the RGCs, the myelin figures observed in FIG. 6 are due to the switch in the oligodendrocytes themselves from a non-myelinating to a myelinating phenotype.
To address the question of whether it is a permanent or a reversible switch if the oligodendrocytes are cultured without neurons, oligodendrocytes were treated with ADORA1 agonist for 72 hours and kept in culture alone for another 5 days. Cultured oligodendrocytes were then removed from the PEI-coated plate and co-cultured with RGCs grown for one week in culture. […]

Take `Nc1ncnc2c1ncn2[C@@H]1O[C@H](CO)[C@@H](O)[C@H]1O` [adenosine]: the “amount of myelin observed” value in experiment [1] is listed as “increased the amount of myelin observed”. Also, the “adenosine responsiveness as measured by percentage of myelination” value in experiment [2] (early versus late stage of oligodendrocyte differentiation) was “more responsive to adenosine at the early stage of differentiation”. Moreover, the “oligodendrocytes establishing segments of myelin on individual axons” value in experiment [2] (in the presence of adenosine or ADORA1 agonist, co-culture grown two weeks, control devoid of myelin segments) was “approximately 90%”.
